Like-named read-outs stand apart in the source and are kept apart here. Marks after values point to notes of the source that are not given here. Positions of bridges follow the written chain, without caps; N, C: chain ends. Non-standard residues stand in square brackets, D forms with d. Residues, ends and D or L forms follow the SMILES beside them. No end group written: not given here.
Legend:
[1] = system: MCP-1 induced THP-1 migration; experiment: THP-1 trans-well migration assay, MCP-1 as chemoattractant; type: cell-based, human; conditions: for % inhibition at 100 μM versus MCP-1, THP-1 migration: agent with the cells, n.s. = no statistically significant inhibition
How it was run: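 5×10^4 THP-1 cells with serially diluted peptide in upper chamber, 5 µm filter, recombinant human chemokine 50 ng/ml (5.9 nM) in lower chamber. Incubated 4 h at 37 °C. Migrated cells counted by MTT staining, A595 read against a THP-1 standard curve.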

[2] = system: chemokine-induced THP-1 migration; experiment: THP-1 trans-well migration assay, panel of chemokines (MCP-1, MIP1α, IL-8, SDF1α); type: cell-based, human; conditions: for effect on THP-1 migration induced by the chemokine panel, in words: IL-8, SDF1α; for CC SPECIFICITY: average inhibitory ED50 versus SDF1 and IL8 divided by average inhibitory ED50 versus MCP-1 and MIP1α
[3] = biological target: T1, Duffy Antigen Receptor for Chemokines (DARC) (Homo sapiens, UniProt Q16570); experiment: DARC binding: competition with 125I-MCP-1 on red blood cells; conditions: for DUFFY SELECTIVITY, peptide 2 family: ka for binding to red blood cells divided by the ka for binding THP-1 cells
T1 sequence (Q16570 1-336): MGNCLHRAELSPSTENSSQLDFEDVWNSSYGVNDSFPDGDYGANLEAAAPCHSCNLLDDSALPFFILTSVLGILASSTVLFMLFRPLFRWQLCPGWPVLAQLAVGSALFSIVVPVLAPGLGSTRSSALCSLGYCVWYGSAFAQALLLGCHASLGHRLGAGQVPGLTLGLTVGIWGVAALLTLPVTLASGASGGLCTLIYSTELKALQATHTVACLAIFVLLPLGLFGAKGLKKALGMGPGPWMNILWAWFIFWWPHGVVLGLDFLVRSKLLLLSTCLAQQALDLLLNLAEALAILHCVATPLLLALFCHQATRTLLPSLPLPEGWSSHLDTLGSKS

[4] = system: IL8 induced THP-1 migration; experiment: THP-1 trans-well migration assay, IL-8 as chemoattractant; type: cell-based, human; conditions: for % inhibition at 100 μM versus IL8, THP-1 migration: n.s. = no statistically significant inhibition
Procedure: To determine whether an agent inhibits a chemokine-induced activity, such as macrophage recruitment, varying amounts of the agent are mixed with cells in the presence of a known chemoattractant. For example, a range of known concentrations of an agent, e.g., a chemokine peptide, is incubated with a defined number (e.g., 10^4-10^6) of human THP-1 monocyte cells in individual wells of the top compartment of a trans-well plate. Chemokine (such as MCP-1, MIP1α, IL8 or SDF-1α), at a concentration known to cause significant migration of THP-1 cells in the trans-well migration assay, is placed in the lower compartment (FIG. 1). Cells are then incubated at 37° C. for a period sufficient to allow migration, e.g., 4 hours. After incubation, the cells are gently removed from the top of the filter with a pipette, 20 μl of 20 mM EDTA in simple PBS is added into each top well, and incubated for 20 minutes at 4° C. The filter is carefully flushed with media using a gentle flow, and removed. A standard curve consisting of a two-fold dilution series of THP-1 cells (in 29 μl) is prepared to accurately quantify the number of cells that have migrated. Migrated cells are stained with 3 μl of MTT stock dye solution which is added directly into each well (5 mg/ml in RPMI-1640 without phenol red, Sigma Chemical Co.) and incubated at 37° C. for 4 hours. The media is carefully aspirated from each well, and the converted dye is solubilized by 20 μl of DMSO. Absorbance of converted dye is measured at a wavelength of 595 nm using an ELISA plate reader. The number of migrated cells in each well is then determined by interpolation of the standard curve (see also Imai et al., J. Biol. Chem., 272, 15036 (1997)).
For this assay, THP-1 cells were maintained at a density of 4×10^5 cells per ml in RPMI-1640 supplemented with 10% fetal calf serum+20 μM 2-mercaptoethanol. Chemotaxis was induced in a 96-well disposable chemotaxis chamber fitted with a […] polycarbonate filter (PVP free, ChemoTX, Neuroprobe Inc., Cabin John). Twenty-nine μl of chemoattractant (recombinant human chemokine; 50 ng/ml, i.e., 5.9 nM) or control (100 ng/ml TGFβ) was added to the lower compartment of each well. The framed filter was aligned with the holes in the corner of the filter frame and placed over the wells. Five×10^4 THP-1 cells in 25 μl of RPMI-1640 were added to the upper compartment. Peptides were dissolved in Milli Q water and then serially diluted in culture medium. In most cases, the serially diluted peptides were added to the upper compartment of the chemotaxis chamber. The chamber was incubated at 37° C. in a humidified atmosphere of 5% CO2 for 4 hours.
After incubation, the cells were gently removed from the top of the filter with a pipette, 20 μl of 20 mM EDTA in PBS was added into each top well, and the mixture was incubated for 20 minutes at 4° C. The filter was then carefully flushed with media using a gentle flow, and removed. A standard curve was prepared to accurately quantify the number of THP-1 cells that had migrated. The curve was based on a two-fold dilution series of THP-1 cells (top standard 100,000 cells in 29 μl). Cells which had migrated, and in separate wells, the cells in the standards, were stained with 3 μl of MTT stock solution which was added directly into each well (5 mg/ml in RPMI 1640 without phenol red, Sigma Chemical Co.) and incubated at 37° C. for 4 hours. The media was carefully aspirated from each well, and the converted dye was solubilized by 20 μl of DMSO. Absorbance of converted dye was measured at a wavelength of 595 nm using an ELISA plate reader. The number of cells that had migrated in each well was determined by interpolation of the standard curve.

[5] = n.s. = no statistically significant inhibition (p > 0.05)

Molecule: CC[C@@H](C)[C@H]1NC(=O)[C@@H](CCC(N)=O)NC(=O)[C@H](N)CSSC[C@H](C(N)=O)NC(=O)[C@@H](CC(C)C)NC(=O)[C@@H](CC(=O)O)NC(=O)[C@H]2CCCN2C(=O)[C@@H](CCCCN)NC(=O)[C@@H](CCC(N)=O)NC(=O)[C@@H](CCCCN)NC(=O)[C@@H](Cc2c[nH]c3ccccc23)NC1=O (H-[dC][dQ][dI][dW][dK][dQ][dK][dP][dD][dL][dC]-NH2; disulfide 1-11; N-terminus assumed)
- IC50 ([1]; read-out: MCP-1 inhibitory activity in the THP-1 transwell assay): 0.005 to 0.1 µM
- effect on THP-1 migration induced by the chemokine panel, in words ([2]; MCP-1, MIP1α): inhibited THP-1 cell migration induced by MCP-1, MIP1α, IL-8, and SDF1, with very similar ED50s
- Kd [3]: 90 µM

Molecule: C=CCCCCCCCCC(=O)N[C@H]1CCC(=O)NC1=O [A-I (NR58.4), [3S]-3-(undec-10-enoylamino)piperidine-2,6-dione]
- EC50 ([1]; listed as NR58.4 (A-I), read-out: ED50 versus MCP-1 induced chemotaxis of THP-1): 0.002 µM
- EC50 ([4]; Homo sapiens, THP-1, read-out: ED50, IL-8 chemotaxis assay): < 0.01 µM

Molecule: NCCCC[C@H](NC(=O)[C@H](CCC(N)=O)NC(=O)[C@@H](N)CCCCN)C(=O)O [KQK]
- percentage inhibition of migration induced by MCP-1 ([1]; tripeptide at 100 μM, mean ± range of two experiments, dash = no statistically significant reduction in migration): 95 ± 8^b %
- ED50 versus IL8, inhibition of THP-1 migration [4, 5]: n.s.
- specificity for the cognate chemokine over all the other chemokines tested ([2]; KQK MCP-1, SEE MIP1-α): more than 100 fold
- Chemokine antagonist ([2]; active against at least one of IL-8, SDF-1α, MCP-1, MIP1α): +++++
- CC SPECIFICITY [2]: >100
- EC50 ([2]; footnote f, KQK MCP-1, SEE MIP1α, KLK SDF1, KEN IL8, read-out: ED50 of a tripeptide against the one chemokine it is highly specific for): 6 µM

Molecule: EICADPKQKWVQ [peptide 3(1-12)[MCP-1]]
- % inhibition at 100 μM versus MCP-1, THP-1 migration ([1]; 100 μM): > 99%
- % inhibition at 100 μM versus MCP-1, THP-1 migration ([1]; 100 μM, listed as Peptide 3 (SEQ ID NO: 1)): 112%
- % inhibition of MCP-1 induced migration at 100 μM, peptide with the chemokine in the lower compartment ([1]; 100 μM, lower compartment): 17%
- EC50 ([1]; agent with the cells in the upper compartment, n.s. = no statistically significant inhibition (p > 0.05), read-out: ED50 versus MCP-1, inhibition of THP-1 migration): 8 ± 1 µM
- % inhibition at 100 μM versus IL8, THP-1 migration [4]: 103%
- EC50 ([4]; n.s. = no statistically significant inhibition (p > 0.05), read-out: ED50 versus IL8, inhibition of THP-1 migration): 14 ± 1 µM
- % inhibition at 100 μM of migration induced by any of the chemokines tested ([2]; 100 μM, THP-1): > 99%
- EC50 ([2]; average inhibitory ED50 for inhibition of THP-1 migration induced by each of the chemokines, read-out: AVERAGE ED50): 10 µM
- CC SPECIFICITY [2]: 1.5
- selectivity ratio (CC versus CXC chemokines) ([2]; greater than 1 = greater inhibition of CC chemokines relative to CXC chemokines): 1.5
- DUFFY SELECTIVITY (DARC specificity ratio) ([3]; estimated ka for binding to red blood cells divided by average inhibitory ED50 versus each of the chemokines): 1.0

Molecule: SYRRITSSKCPKEAV [peptide 2(1-15)[MCP-1]]
- % inhibition at 100 μM versus MCP-1, THP-1 migration ([1]; 100 μM, listed as Peptide 2 (SEQ ID NO: 3)): n.s.
- % inhibition at 100 μM versus MCP-1, THP-1 migration ([1]; 100 μM, listed as Peptide 2[MCP-1]): 19%
- ED50 versus MCP-1, inhibition of THP-1 migration ([1]; agent with the cells in the upper compartment, n.s. = no statistically significant inhibition (p > 0.05)): n.s.
- MCP-1 ED-50 ([1]; ns = not significantly different from control): ns
- % inhibition at 100 μM versus IL8, THP-1 migration [4]: n.s.
- ED50 versus IL8, inhibition of THP-1 migration [4, 5]: n.s.
- effect on THP-1 migration induced by the chemokine panel, in words ([2]; MCP-1, MIP1α): no significant effect
- Kd ([3]; association (affinity) constant for DARC, red blood cells): 100 µM
- Kd ([3]; association constant / affinity for DARC, red blood cells): < 0.5 µM
- DUFFY SELECTIVITY, peptide 2 family [3]: 0.1-0.2
- DUFFY SELECTIVITY, peptide 2 family ([3]; listed as Pep2[MCP1]): 0.18^d

Source: patent publication US7989466B2, “Methods to inhibit or augment an inflammatory response” (Cambridge Enterprise Limited, priority 1999, dated 2011)
